This test has as its target T1, Promotilin (Oryctolagus cuniculus, UniProt P27114).
T1 sequence (P27114 whole entry): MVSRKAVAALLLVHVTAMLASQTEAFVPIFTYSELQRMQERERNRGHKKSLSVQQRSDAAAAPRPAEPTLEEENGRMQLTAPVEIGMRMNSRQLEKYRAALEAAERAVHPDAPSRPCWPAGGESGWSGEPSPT

The values that follow come from BindingDB's records for doi:10.1046/j.1440-1681.1999.03022.x (University of Melbourne, 1999).

By Ki is commonly meant a dissociation constant, usually derived from enzyme kinetics or from competition with a known ligand. A high value points to lower affinity.

Structures are written as SMILES.

With `CC[C@H](C)[C@H](NC(=O)[C@@H]1CCCN1C(=O)[C@@H](NC(=O)[C@@H](N)Cc1ccccc1)C(C)C)C(=O)N[C@@H](Cc1ccccc1)C(=O)N[C@H](C(=O)N[C@@H](Cc1ccc(O)cc1)C(=O)NCC(=O)N[C@@H](CCC(=O)O)C(=O)N[C@@H](CC(C)C)C(=O)N[C@@H](CCC(N)=O)C(=O)N[C@@H](CCCNC(=N)N)C(=O)N[C@@H](CCSC)C(=O)N[C@@H](CCC(N)=O)C(=O)N[C@@H](CCC(=O)O)C(=O)N[C@@H](CCCCN)C(=O)N[C@@H](CCC(=O)O)C(=O)N[C@@H](CCCNC(=N)N)C(=O)N[C@@H](CC(N)=O)C(=O)N[C@@H](CCCCN)C(=O)NCC(=O)N[C@@H](CCC(N)=O)C(=O)O)[C@@H](C)O` [CAS_52906-92-0], the Ki was determined as 3.98 nM.
With `CC[C@H]1OC(=O)[C@H](C)[C@@H](O[C@H]2C[C@@](C)(OC)[C@@H](O)[C@H](C)O2)[C@H](C)[C@@H](O[C@H]2O[C@@H](C)C[C@@H](N(C)C)[C@@H]2O)[C@](C)(O)C[C@@H](C)C(=O)[C@H](C)[C@@H](O)[C@]1(C)O` [(3R,4S,5S,6R,7R,9R,11R,12R,13S,14R)-6-{[(2R,3S,4R,6S)-4-(dimethylamino)-3-hydroxy-6-methyloxan-2-yl]oxy}-14-ethyl-7,12,13-trihydroxy-4-{[(2R,4R,5S,6S)-5-hydroxy-4-methoxy-4,6-dimethyloxan-2-yl]oxy}-3,5,7,9,11,13-hexamethyl-1-oxacyclotetradecane-2,10-dione] the figure was 1000 nM; with `CC[C@H]1OC(=O)[C@H](C)[C@@H](O[C@H]2C[C@@](C)(OC)[C@@H](O)[C@H](C)O2)[C@H](C)[C@@H](O[C@@H]2O[C@H](C)C[C@H](N(C)C(C)C)[C@H]2O)[C@@]2(C)CC(C)=C(O2)[C@H](C)C(=O)[C@]1(C)OC` [Mitemcinal], 31.6 nM; with `C[N+](C)(C)CCOC(N)=O` [(2-Hydroxyethyl)trimethyl ammonium chloride carbamate], 158 nM.
